pIC50: −log10 of the molar value.
System: ACE
Experiment: ACE inhibitory activity (IC50) of the isolated peptides, method not specified
Assay type: biochemical
Method: The five more apparent peaks in FIG. 4 are designated as A3-B4-C6-D1 to D5. The sequences of them are determined by sequence-determining machine. Five short-chain peptides, Val-Leu-Pro (VLP), Ilu-Leu-Pro (ILP), Val-Leu-Tyr (VLY), Val-Leu-Pro-Pro (VLPP) and Ilu-Leu-Pro-Pro (ILPP) are obtained. The ACE inhibitory activity of them (IC50) is determined.

pIC50 | Substance
3.76 | Ilu-Leu-Pro-Pro (ILPP)
4.01 | VLPP [Val-Leu-Pro-Pro]

Source: US7335722B2, “Peptides used as angiotensin converting enzyme inhibitor and preparation process thereof” (Food Industry Research and Development Institute, priority 1999, dated 2008)
